Common to all, as to experiment: growth of human tumour cells (NCI), 48 h
The test system of experiment [1] is EKVX NSCLC.
The test system of experiment [2] is OVCAR-3 ovarian.
Experiment [3] concerns SR leukemia.
For experiment [4], the system named is UACC-62 melanoma.
The test system of experiment [5] is OVCAR-5 ovarian.
Experiment [6] has as its system NCI/ADR-RES ovarian.
The test system of experiment [7] is SK-MEL-28 melanoma.
For experiment [8], the system named is LOX IMVI melanoma.
The test system of experiment [9] is A498 renal.
The subject of experiment [10] is BT-549 breast.

The text below walks through data of PubChem BioAssay (NCI).

Several values for one entry are separate records, joined by “and”; a condition that tells them apart may be missing. Equal values may be shown once.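 Where inhibition never reached the appropriate level, the endpoint shown equals the highest concentration tested. Otherwise, values were interpolated linearly from a five-concentration, 48-hour dose response in 96-well plates. GI50 marks 50% less growth. TGI: concentration producing complete growth inhibition.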

With `COc1cc(Br)c(CC2C3=C(CCN2C(=O)C2CCC2)CC(=O)CC3)cc1O` (stereo unspecified), the TGI in experiment [1] was more than 100 µM; in [2] it was 57 µM; in experiment [3] it was more than 100 µM; in experiment [4], 36.3 µM; in [5], more than 100 µM; in experiment [6], more than 100 µM. In addition, the TGI in experiment [7] and in experiment [8] was more than 100 µM throughout.
As for `CN(Cc1cc(Cl)c(Cl)cc1NC(=O)CN)[C@H]1CCCC[C@@H]1N1CCCC1`, the TGI in [1] is more than 100 µM; in experiment [2], more than 100 µM; in experiment [3], 49.9 µM; in [9], 41.5 µM; in [4], 31.5 µM; in experiment [5] it was more than 100 µM. In addition, the TGI is more than 100 µM in [6], 41.5 µM in [7] and 32.3 µM in experiment [8].
Turning to `NC1CC=C(COC(=O)C(O)(c2ccccc2)C2CC2)CC1` (stereo unspecified), the TGI in [1], in experiment [2], in experiment [3], in experiment [4], in experiment [5] and in [6] was more than 100 µM throughout. For the same compound, the TGI in [7] and in experiment [8] was more than 100 µM each time.
Take `Cc1nc2ccccc2c(/C=C/c2ccc(Cl)cc2)c1C(=O)/C=C/c1ccccc1`: the GI50 is 1.36 µM in experiment [2], 1.83 µM in experiment [5], 1.74 µM in experiment [7] and 1.64 µM in experiment [8]. The TGI is 2.77 µM in [2], 3.39 µM in experiment [5], 3.22 µM in experiment [7] and 3.03 µM in experiment [8].
Consider `N#CC(C#N)=C1C(=O)NC(N)=C1C#N`, for which the TGI in [10], in experiment [1], in experiment [9], in experiment [4], in experiment [5] and in experiment [6] was more than 100 µM in each case. In addition, the TGI in [7] and in [8] was more than 100 µM throughout.
Take `Cc1ccc(CCC(=O)C(=O)O)s1`: the TGI in experiment [1] was more than 100 µM; in [2], more than 100 µM; in experiment [3] it was more than 100 µM; in [9], more than 100 µM; in experiment [4], 48.6 µM; in experiment [5], more than 100 µM. Also, the TGI in experiment [7] was more than 100 µM.
For the compound `CC(=O)Nc1ccccc1NC1CC(C)N(c2ccccc2)N1C(C)=O` (stereo unspecified), the TGI in experiment [1], in experiment [3], in experiment [4] and in experiment [7] was more than 10 µM in each case.
On to `COc1ccc(-c2nn(-c3ccc(NC(=O)Nc4ccc(Cl)c(C(F)(F)F)c4)cc3)cc2-c2ccncc2)cc1Cl`, for which the GI50 in [1] is 1.83 µM; in experiment [2], 1.67 µM; in experiment [3], 1.86 µM; in experiment [9] it was 1.62 µM; in experiment [4], 1.33 µM; in [5], 1.88 µM. Moreover, the GI50 in experiment [6] was 2.4 µM; in [7], 1.67 µM. In addition, the TGI came out at 14.4 µM in experiment [1]; 6.14 µM in experiment [2]; 5.96 µM in experiment [3]; 5.18 µM in [9]; 2.75 µM in experiment [4]; 5.96 µM in experiment [5]. Besides, the TGI in experiment [6] was more than 100 µM; in [7] it was 3.64 µM.
Consider `CC(C)(C)[Si](C)(C)OCC1OC(n2cnc3c(=O)[nH]c(N)nc32)C(O[Si](C)(C)C(C)(C)C)C1O[Si](C)(C)C(C)(C)C` (stereo unspecified), for which the TGI is more than 46.6 µM in experiment [1]; 3.56 µM in experiment [2]; 5.48 µM in [3]; 6.21 µM in experiment [9]; 4.3 µM in experiment [4]; 5.79 µM in [5]. Also, the TGI in experiment [6] was more than 100 µM; in experiment [7], 3.89 µM; in [8], more than 19.7 µM.
Take `CSc1scc2c1/C(=N/NC(N)=O)CCC2`: the TGI in experiment [10] is more than 100 µM; in experiment [2] it was more than 100 µM; in [9], more than 100 µM; in experiment [4], more than 100 µM; in experiment [5], more than 100 µM; in experiment [6], 73.4 µM. For the same compound, the TGI in [7] and in experiment [8] was more than 100 µM each time.
For the compound `COc1ccc2nc3cc(Cl)ccc3c(NCCNc3c4ccc(Cl)cc4nc4ccc(OC)cc34)c2c1`, the GI50 in experiment [9] is 1.8 µM; in experiment [7] it was 1.86 µM. The TGI stood at 3.36 µM in experiment [9] and 3.4 µM in [7].
For the compound `CCCC(=O)[O-].N.N.N.N.N.[Co+3].[O-][Cl+3]([O-])([O-])[O-]`, the TGI in experiment [1], in experiment [2], in experiment [9], in [4], in [5] and in [7] was more than 100 µM in each case. Also, the TGI in experiment [8] was more than 100 µM.
Regarding `Cc1ccc(NC(=O)CSC(N)=O)cc1C`, the TGI in experiment [1], in experiment [2], in [3], in experiment [9], in experiment [4] and in experiment [5] was more than 100 µM throughout. The TGI in [6], in experiment [7] and in [8] was more than 100 µM in each case.
With `CCOC(=O)N1CCC(=C2c3ccc(Cl)cc3CCc3cccnc32)CC1`, the TGI in experiment [1] came out at 28.1 µM; in experiment [2], 22.5 µM; in experiment [3] it was 14.2 µM; in experiment [9], 8.12 µM; in experiment [4] it was 18.9 µM; in experiment [5], 37.9 µM. The TGI in [6] stood at 23.6 µM; in [7], 20.3 µM; in experiment [8] it was 74.6 µM.
Consider `C=C(c1ccccc1)c1ccccc1-c1cc(-c2ccccc2)cc(-c2ccccc2)n1`, for which the TGI in experiment [1], in experiment [2], in experiment [3], in experiment [9], in [4] and in experiment [5] was more than 100 µM in each case. Moreover, the TGI in [6], in experiment [7] and in experiment [8] was more than 100 µM throughout.
Take `O=C(CSc1nc2ccccc2c(=O)n1-c1ccccc1)N=Nc1c(O)[nH]c2ccc(F)cc12`: the TGI is 5.57 µM in experiment [1]; 3.91 µM in experiment [2]; 4.21 µM in [3]; 4.82 µM in experiment [4]; 4.73 µM in experiment [5]; 5.48 µM in experiment [6]. The TGI in experiment [7] is 4.54 µM; in experiment [8] it was more than 100 µM.
For the compound `O=c1oc2ccccc2c(O)c1C(C/C(CCN1CCCC1)=N\Nc1ccccc1)c1ccccc1` (stereo unspecified), the TGI in experiment [1] is more than 100 µM; in [2] it was more than 100 µM; in experiment [3], 75.1 µM; in experiment [9], more than 100 µM; in [4], more than 100 µM; in [5], more than 100 µM. Moreover, the TGI in experiment [8] was more than 100 µM.
Consider `COC(=O)C(NC(=O)c1ccccc1)C(c1ccc(Cl)cc1)P(=O)(OC)OC` (stereo unspecified), for which the TGI in [1], in [3], in experiment [9], in experiment [4], in [5] and in experiment [7] was more than 100 µM throughout. The compound also had a TGI in [8] of more than 100 µM.
Take `O=c1c2ccccc2nc(N/N=C/c2ccccc2O)n1-c1ccccc1`: the TGI in experiment [10] is more than 100 µM; in [2], 17.2 µM; in experiment [9], more than 100 µM; in experiment [4], 7.1 µM; in [5] it was more than 100 µM; in [6], 7.71 µM. Moreover, the TGI in experiment [7] and in experiment [8] was more than 100 µM each time.
Turning to `O=C(O)CCC(NC(=O)c1ccc(Nc2nc3cc(C(F)(F)F)ccc3nc2C(=O)O)cc1)C(=O)O` (stereo unspecified), the TGI in [1], in [2], in [3], in [9], in experiment [4] and in experiment [5] was more than 100 µM each time. Also, the TGI in experiment [6], in experiment [7] and in [8] was more than 100 µM each time.
Take `COc1ccc(N2C(=O)C3c4[nH]c5ccccc5c4C4CCCCC4C3C2=O)cc1` (stereo unspecified): the TGI was 37.7 µM in experiment [1]; more than 100 µM in experiment [2]; 25.2 µM in experiment [3]; 54.4 µM in experiment [9]; 33.3 µM in [4]; more than 100 µM in experiment [5]. In addition, the TGI in experiment [7] was 42.4 µM; in experiment [8] it was more than 100 µM.
Take `CCCCNC(=O)/N=C/c1c(O)c2ccccc2oc1=O`: the TGI in experiment [1], in [3], in experiment [4], in [5], in experiment [7] and in [8] was more than 100 µM each time.
On to `COc1ccc(C[C@H](N)C(=O)N2C[C@@H](CO)C[C@@H](n3ccc(=O)[nH]c3=O)C2)cc1`, for which the TGI in experiment [1], in experiment [2], in experiment [3], in [4], in [5] and in [7] was more than 100 µM in each case. Moreover, the TGI in experiment [8] is more than 100 µM.
Turning to `COc1ccc(Sc2ccccc2N)cc1`, the TGI in experiment [1], in experiment [2], in [3], in [9], in experiment [4] and in experiment [5] was more than 100 µM each time. The figures for the TGI in experiment [7] and in experiment [8] were 77.3 µM and more than 100 µM, respectively.
Consider `C/C=C(/C)C(=O)O[C@H]1[C@H](O)CC(c2ccc3c(c2O)C(O)=C2C(=O)C4(OC)C(O)=C(C(N)=O)C(=O)[C@H](CC(=O)c5ccccc5O)C4CC2[C@@]3(C)OC)O[C@@H]1C` (stereo partly specified), for which the TGI in experiment [10] was 0.892 µM; in experiment [1], 0.518 µM; in [2] it was 1.9 µM; in [3], 0.355 µM; in [9], 2.21 µM and 1.49 µM; in experiment [4] it was 0.236 µM. The TGI in [5] is 2.02 µM and 0.916 µM; in experiment [7] it was 2.56 µM and 2.45 µM; in experiment [8] it was 0.132 µM. Further, the GI50 in experiment [9] was 0.0198 µM; in [7] it was 1.06 µM.
With `NC(CSSCC(N)Cc1ccccc1)Cc1ccccc1` (stereo unspecified), the TGI in [1] was more than 100 µM; in experiment [2], more than 100 µM; in [3], 91.7 µM; in experiment [9], more than 100 µM; in experiment [4] it was 44.9 µM; in experiment [5], more than 100 µM. The figures for the TGI in experiment [7] and in experiment [8] were more than 100 µM and 84.4 µM, respectively.
On to `CCOC(=O)c1c(-c2cccc3ccccc23)c(C#N)c(=S)n(C2OC(COC(C)=O)C(OC(C)=O)C(OC(C)=O)C2OC(C)=O)c1C` (stereo unspecified), for which the TGI in experiment [2], in experiment [3], in [9], in experiment [4], in experiment [5] and in [6] was more than 100 µM throughout. For the same compound, the TGI in [7] and in experiment [8] was more than 100 µM in each case.
With `COc1ccc2c(c1)OC[C@@H]1c3cc(O)c(OCc4ccccc4)cc3O[C@H]21`, the TGI in [1] is 60.1 µM; in [2] it was more than 100 µM; in [9], more than 100 µM; in [4], more than 100 µM; in experiment [5] it was more than 100 µM; in [7], more than 100 µM. The same compound came in with a TGI in experiment [8] of more than 100 µM.
As to `Cc1ccc(-n2cc([Si](C)(C)C)nn2)s1`, the TGI in [10], in experiment [2], in [9], in experiment [4], in experiment [5] and in experiment [6] was more than 100 µM throughout. In addition, the TGI in experiment [7] and in [8] was more than 100 µM each time.
Turning to `O=C(N/N=C/c1cc(Br)cc(Br)c1[O-])c1ccccc1O.O=C(N/N=C/c1cc(Br)cc(Br)c1[O-])c1ccccc1O.[Ni+2]`, the TGI in [1] was found to be 2.97 µM; in [2] it was 0.52 µM; in [3] it was 1.65 µM; in experiment [4] it was 0.661 µM; in experiment [5], 1.34 µM; in experiment [7] it was 1.96 µM. Besides, the TGI in experiment [8] is 1.84 µM.
For `COC1OC2=CCC3C(=O)NC(=O)C3C2[C@H](OCc2ccccc2)C1OCc1ccccc1` (stereo partly specified), the TGI in experiment [1] amounted to 3.39 µM; in experiment [2] it was 3.1 µM; in experiment [4], 6 µM; in [5] it was 29.1 µM; in experiment [7] it was 3.3 µM; in [8], 3.22 µM.
